The values below come from US5420145A, “Carboxylic acid derivative” (Shudo; Koichi, priority 1993, dated 1995).

SMILES strings stand for the structures.

One assay deals with promyelocytic leukemia cell-line HL-60. In words: Differentiation Inducing Activity on HL-60 (differentiation to granulocyte; morphological observation of nucleus and NBT reduction). The assay is classed as cell-based. The settings on record: Homo sapiens, HL-60, read-out: ED50 (concentration which induced differentiation in the half of the cells). How it is done:
The activities of the compounds of the above-described examples on differentiation were evaluated using promyelocytic leukemia cell-line HL-60 according to the method described in Japanese Patent Unexamined Publication No. 61-76440. The differentiation to granulocyte was evaluated by morphological observation of nucleus and measurement of ability to reduce nitroblue-tetrazolium (NBT). These are well known procedures providing adequate results in the evaluation of the cell differentiation-inducing activity of retinoids. Retinoic acid was used as the reference compound, and the concentrations which induced differentiation in the half of the cells were calculated.
`CC1=C(/C=C/C(C)=C/C=C/C(C)=C/C(=O)O)C(C)(C)CCC1` [Retinoic Acid, Retinoic acid, reference compound]: the EC50 was determined as 2.4 nM.

Still in this assay, the particulars now being: Homo sapiens; HL-60 cells; differentiation to granulocyte; nucleus morphology and nitroblue-tetrazolium (NBT) reduction; read-out: ED50 (concentration which induced differentiation in the half of the cells).
Take `CC1(C)CCC(C)(C)c2cc(NC(=O)c3ccc(C(=O)O)nc3)ccc21` [Example 1, 5-(5,6,7,8-Tetrahydro-5,5,8,8-tetramethyl-2-naphthalenyl-carbamoyl)pyridine-2-carboxylic acid]: the EC50 amounted to 40 nM.

Regarding `CC1(C)CCC(C)(C)c2cc(NC(=O)c3ccc(C(=O)O)cn3)ccc21` [Example 2, 6-(5,6,7,8-Tetrahydro-5,5,8,8-tetramethyl-2naphthalenylcarbamoyl) pyridine-3-carboxylic acid], the EC50 came out at 0.22 nM. On the same count and under the same terms, under `CC1(C)CCC(C)(C)c2cc(NC(=O)c3ccc(C(=O)O)cc3O)ccc21` [Example 3, 3-Hydroxy-4-(5,6,7,8-tetrahydro-5,5,8,8-tetramethyl-2-naphthalenylcarbamoyl)benzoic acid] stands 0.41 nM; under `CC1(C)CCC(C)(C)c2cc(C(=O)Nc3ccc(C(=O)O)cc3O)ccc21` [Example 4, 3-Hydroxy-4-(5,6,7,8-tetrahydro-5,5,8,8-tetramethyl-2-naphthalenylcarboxamide)benzoic acid], 6.5 nM. Still for that read-out and setting: under `CC(C)c1ccc(NC(=O)c2ccc(C(=O)O)cn2)cc1C(C)C` [Example 5, 6-(3,4-Di-isopropylphenylcarbamoyl)pyridine-3-carboxylic acid] stands 25 nM.
